Measurements published in ChEMBL document CHEMBL3885881, “DrugMatrix”.

Species: Rattus norvegicus
Experiment: DrugMatrix - Regimen: Daily Repeat
Assay type: toxicity, organism-based, Sprague-Dawley
Design: regimen Daily Repeat, gender Male, age 6-8 weeks
Settings: in vivo, po, route oral GAVAGE, vehicle 100 % WATER; for ABSOLUTE BASOPHIL / ABSOLUTE EOSINOPHIL / ABSOLUTE LYMPHOCYTE / ABSOLUTE MONOCYTE / ABSOLUTE SEGMENTED NEUTROPHIL / BASOPHIL / EOSINOPHIL / ERYTHROCYTE COUNT / HEMATOCRIT / HEMOGLOBIN / LEUKOCYTE COUNT / LYMPHOCYTE / MEAN CORPUSCULAR HEMOGLOBIN / MEAN CORPUSCULAR HEMOGLOBIN CONCENTRATION / MEAN CORPUSCULAR VOLUME / MONOCYTE / NEUTROPHIL / NUCLEATED RED BLOOD CELLS / PLATELET COUNT: tissue Blood; for ALANINE AMINOTRANSFERASE / ALBUMIN / ALKALINE PHOSPHATASE / ASPARTATE AMINOTRANSFERASE / BLOOD UREA NITROGEN / CARBON DIOXIDE / CHLORIDE / CHOLESTEROL / CREATINE PHOSPHOKINASE / CREATININE / GLUCOSE / LACTATE DEHYDROGENASE / LIPASE / PHOSPHORUS / POTASSIUM / SODIUM / TOTAL BILIRUBIN / TOTAL PROTEIN / URIC ACID: tissue Plasma
[1] = 27 mg/kg, 120 h, dose level Low, time 5 day
[2] = 54 mg/kg, 72 h, dose level High, time 3 day
[3] = 54 mg/kg, 120 h, dose level High, time 5 day

CNNCc1ccc(C(=O)NC(C)C)cc1 [PROCARBAZINE]
ABSOLUTE BASOPHIL [1]: 0 CELLS/uL | ABSOLUTE EOSINOPHIL [1]: 16.67 CELLS/uL | ABSOLUTE LYMPHOCYTE [1]: 6271.33 CELLS/uL | ABSOLUTE MONOCYTE [1]: 33.33 CELLS/uL | ABSOLUTE SEGMENTED NEUTROPHIL [1]: 112 CELLS/uL | BASOPHIL [1]: 0% | EOSINOPHIL [1]: 0.33% | ERYTHROCYTE COUNT [1]: 5.26 x10E6/uL | HEMATOCRIT [1]: 33.2% | HEMOGLOBIN [1]: 13.37 G/DL | LEUKOCYTE COUNT [1]: 6.43 x10E3/uL | LYMPHOCYTE [1]: 97.33% | MEAN CORPUSCULAR HEMOGLOBIN [1]: 25.4 pg | MEAN CORPUSCULAR HEMOGLOBIN CONCENTRATION [1]: 40.27 G/DL | MEAN CORPUSCULAR VOLUME [1]: 63.07 fL | MONOCYTE [1]: 0.67% | NEUTROPHIL [1]: 1.67% | NUCLEATED RED BLOOD CELLS [1]: 0 /100WBC | PLATELET COUNT [1]: 1312.67 x10E3/uL | ALANINE AMINOTRANSFERASE [1]: 59.67 u/L | ALBUMIN [1]: 4.33 G/DL | ALKALINE PHOSPHATASE [1]: 347 u/L | ASPARTATE AMINOTRANSFERASE [1]: 78.67 u/L | BLOOD UREA NITROGEN [1]: 13.67 mg/dL | CARBON DIOXIDE [1]: 33.67 mmol/L | CHLORIDE [1]: 98 MEQ/L | CHOLESTEROL [1]: 69 mg/dL | CREATINE PHOSPHOKINASE [1]: 304.67 u/L | CREATININE [1]: 0.18 mg/dL | GLUCOSE [1]: 140.67 mg/dL | LACTATE DEHYDROGENASE [1]: 152 u/L | LIPASE [1]: 15.33 u/L | PHOSPHORUS [1]: 9.77 mg/dL | POTASSIUM [1]: 5.23 MEQ/L | SODIUM [1]: 144.95 MEQ/L | TOTAL BILIRUBIN [1]: 0.13 mg/dL | TOTAL PROTEIN [1]: 6.07 G/DL | URIC ACID [1]: 0.77 mg/dL | ABSOLUTE BASOPHIL [2]: 0 CELLS/uL | ABSOLUTE EOSINOPHIL [2]: 27.33 CELLS/uL | ABSOLUTE LYMPHOCYTE [2]: 4383.67 CELLS/uL | ABSOLUTE MONOCYTE [2]: 36 CELLS/uL | ABSOLUTE SEGMENTED NEUTROPHIL [2]: 119.67 CELLS/uL | BASOPHIL [2]: 0% | EOSINOPHIL [2]: 0.67% | ERYTHROCYTE COUNT [2]: 5.22 x10E6/uL | HEMATOCRIT [2]: 33.2% | HEMOGLOBIN [2]: 13 G/DL | LEUKOCYTE COUNT [2]: 4.57 x10E3/uL | LYMPHOCYTE [2]: 96% | MEAN CORPUSCULAR HEMOGLOBIN [2]: 24.93 pg | MEAN CORPUSCULAR HEMOGLOBIN CONCENTRATION [2]: 39.17 G/DL | MEAN CORPUSCULAR VOLUME [2]: 63.7 fL | MONOCYTE [2]: 0.67% | NEUTROPHIL [2]: 2.67% | NUCLEATED RED BLOOD CELLS [2]: 0 /100WBC | PLATELET COUNT [2]: 1130.67 x10E3/uL | ALANINE AMINOTRANSFERASE [2]: 49.67 u/L | ALBUMIN [2]: 4.13 G/DL | ALKALINE PHOSPHATASE [2]: 355.67 u/L | ASPARTATE AMINOTRANSFERASE [2]: 81.67 u/L | BLOOD UREA NITROGEN [2]: 13 mg/dL | CARBON DIOXIDE [2]: 33.67 mmol/L | CHLORIDE [2]: 100 MEQ/L | CHOLESTEROL [2]: 90 mg/dL | CREATINE PHOSPHOKINASE [2]: 291.67 u/L | CREATININE [2]: 0.1 mg/dL | GLUCOSE [2]: 146.67 mg/dL | LACTATE DEHYDROGENASE [2]: 99 u/L | LIPASE [2]: 9 u/L | PHOSPHORUS [2]: 9.63 mg/dL | POTASSIUM [2]: 5.66 MEQ/L | SODIUM [2]: 145.5 MEQ/L | TOTAL BILIRUBIN [2]: 0.1 mg/dL | TOTAL PROTEIN [2]: 6 G/DL | URIC ACID [2]: 0.43 mg/dL | ABSOLUTE BASOPHIL [3]: 0 CELLS/uL | ABSOLUTE EOSINOPHIL [3]: 0 CELLS/uL | ABSOLUTE LYMPHOCYTE [3]: 3873.67 CELLS/uL | ABSOLUTE MONOCYTE [3]: 49.33 CELLS/uL | ABSOLUTE SEGMENTED NEUTROPHIL [3]: 210.33 CELLS/uL | BASOPHIL [3]: 0% | EOSINOPHIL [3]: 0% | ERYTHROCYTE COUNT [3]: 5.43 x10E6/uL | HEMATOCRIT [3]: 33.9% | HEMOGLOBIN [3]: 13.27 G/DL | LEUKOCYTE COUNT [3]: 4.13 x10E3/uL | LYMPHOCYTE [3]: 93.33% | MEAN CORPUSCULAR HEMOGLOBIN [3]: 24.43 pg | MEAN CORPUSCULAR HEMOGLOBIN CONCENTRATION [3]: 39.13 G/DL | MEAN CORPUSCULAR VOLUME [3]: 62.37 fL | MONOCYTE [3]: 1% | NEUTROPHIL [3]: 5.67% | NUCLEATED RED BLOOD CELLS [3]: 0 /100WBC | PLATELET COUNT [3]: 1552.67 x10E3/uL | ALANINE AMINOTRANSFERASE [3]: 57.33 u/L | ALBUMIN [3]: 4.33 G/DL | ALKALINE PHOSPHATASE [3]: 297.33 u/L | ASPARTATE AMINOTRANSFERASE [3]: 75.67 u/L | BLOOD UREA NITROGEN [3]: 15.33 mg/dL | CARBON DIOXIDE [3]: 34 mmol/L | CHLORIDE [3]: 97.67 MEQ/L | CHOLESTEROL [3]: 81 mg/dL | CREATINE PHOSPHOKINASE [3]: 273.67 u/L | CREATININE [3]: 0.13 mg/dL | GLUCOSE [3]: 134.67 mg/dL | LACTATE DEHYDROGENASE [3]: 135.33 u/L | LIPASE [3]: 10 u/L | PHOSPHORUS [3]: 9.93 mg/dL | POTASSIUM [3]: 6 MEQ/L | SODIUM [3]: 143.97 MEQ/L | TOTAL BILIRUBIN [3]: 0.17 mg/dL | TOTAL PROTEIN [3]: 6.13 G/DL | URIC ACID [3]: 0.97 mg/dL
